Measured values reported in PubChem BioAssay (NCI).
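Interpolation was linear, between the two tested concentrations surrounding the appropriate level; five concentrations were tested over 48 hours in 96-well plates. Here, GI50 denotes the concentration required for 50% inhibition of growth. TGI is the concentration that stops growth completely.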

Key:
Assay in all cases: DTP human tumour cell line panel, 48 h
EKVX NSCLC = tested on: EKVX NSCLC
NCI-H23 lung = tested on: NCI-H23 lung
SK-OV-3 ovarian = tested on: SK-OV-3 ovarian
SN12C renal = tested on: SN12C renal
CCRF-CEM leukemia = tested on: CCRF-CEM leukemia
RPMI-8226 leukemia = tested on: RPMI-8226 leukemia
MDA-MB-231 breast = tested on: MDA-MB-231 breast
A549 NSCLC = tested on: A549 NSCLC
786-0 renal = tested on: 786-0 renal
SNB-75 CNS = tested on: SNB-75 CNS
NCI-H226 lung = tested on: NCI-H226 lung
OVCAR-3 ovarian = tested on: OVCAR-3 ovarian
KM12 colon = tested on: KM12 colon
UO-31 renal = tested on: UO-31 renal
MDA-MB-468 breast = tested on: MDA-MB-468 breast
HOP-92 NSCLC = tested on: HOP-92 NSCLC
SF-268 CNS = tested on: SF-268 CNS
HT29 colon = tested on: HT29 colon
SNB-19 CNS = tested on: SNB-19 CNS
CAKI-1 renal = tested on: CAKI-1 renal
PC-3 prostate = tested on: PC-3 prostate
SR leukemia = tested on: SR leukemia
DU-145 prostate = tested on: DU-145 prostate
LOX IMVI melanoma = tested on: LOX IMVI melanoma
NCI-H460 lung = tested on: NCI-H460 lung
NCI/ADR-RES ovarian = tested on: NCI/ADR-RES ovarian
MOLT-4 leukemia = tested on: MOLT-4 leukemia
T-47D breast = tested on: T-47D breast
SF-539 CNS = tested on: SF-539 CNS
OVCAR-5 ovarian = tested on: OVCAR-5 ovarian
A498 renal = tested on: A498 renal
UACC-62 melanoma = tested on: UACC-62 melanoma
OVCAR-8 ovarian = tested on: OVCAR-8 ovarian
HS 578T breast = tested on: HS 578T breast
HCT-15 colon = tested on: HCT-15 colon
HCC-2998 colon = tested on: HCC-2998 colon
OVCAR-4 ovarian = tested on: OVCAR-4 ovarian
MALME-3M melanoma = tested on: MALME-3M melanoma
IGROV1 ovarian = tested on: IGROV1 ovarian
UACC-257 melanoma = tested on: UACC-257 melanoma
TK-10 renal = tested on: TK-10 renal
K-562 leukemia = tested on: K-562 leukemia
ACHN renal = tested on: ACHN renal
MCF7 breast = tested on: MCF7 breast
MDA-MB-435 = tested on: MDA-MB-435
SK-MEL-5 melanoma = tested on: SK-MEL-5 melanoma
SF-295 CNS = tested on: SF-295 CNS
NCI-H522 lung = tested on: NCI-H522 lung
HOP-62 NSCLC = tested on: HOP-62 NSCLC
SW-620 colon = tested on: SW-620 colon
SK-MEL-28 melanoma = tested on: SK-MEL-28 melanoma
BT-549 breast = tested on: BT-549 breast
COLO 205 colon = tested on: COLO 205 colon
SK-MEL-2 melanoma = tested on: SK-MEL-2 melanoma
U251 CNS = tested on: U251 CNS
HCT-116 colon = tested on: HCT-116 colon
M14 melanoma = tested on: M14 melanoma
HL-60(TB) leukemia = tested on: HL-60(TB) leukemia

SMILES: COc1ccc(C(=O)/C=C/c2ccc(OCc3ccc(F)cc3)c(OC)c2)cc1OC
- GI50 (EKVX NSCLC): 5.19 µM
- TGI (EKVX NSCLC): > 100 µM
- GI50 (NCI-H23 lung): 4.44 µM
- TGI (NCI-H23 lung): 79.3 µM
- GI50 (SK-OV-3 ovarian): 34.8 µM
- TGI (SK-OV-3 ovarian): > 100 µM
- GI50 (SN12C renal): 2.95 µM
- TGI (SN12C renal): > 100 µM
- GI50 (CCRF-CEM leukemia): 3.49 µM
- TGI (CCRF-CEM leukemia): > 100 µM
- GI50 (RPMI-8226 leukemia): 2.7 µM
- TGI (RPMI-8226 leukemia): > 100 µM
- GI50 (MDA-MB-231 breast): 3.95 µM
- TGI (MDA-MB-231 breast): > 100 µM
- GI50 (A549 NSCLC): 4.81 µM
- TGI (A549 NSCLC): > 100 µM
- GI50 (786-0 renal): 30 µM
- TGI (786-0 renal): > 100 µM
- GI50 (SNB-75 CNS): 17.3 µM
- TGI (SNB-75 CNS): 99.2 µM
- GI50 (NCI-H226 lung): 4.7 µM
- TGI (NCI-H226 lung): > 100 µM
- GI50 (OVCAR-3 ovarian): 4.64 µM
- TGI (OVCAR-3 ovarian): > 100 µM
- GI50 (KM12 colon): 4.31 µM
- TGI (KM12 colon): > 100 µM
- GI50 (UO-31 renal): 3.7 µM
- TGI (UO-31 renal): > 100 µM
- GI50 (MDA-MB-468 breast): 2.74 µM
- TGI (MDA-MB-468 breast): > 100 µM
- GI50 (HOP-92 NSCLC): 7.53 µM
- TGI (HOP-92 NSCLC): > 100 µM
- GI50 (SF-268 CNS): 12 µM
- TGI (SF-268 CNS): > 100 µM
- GI50 (HT29 colon): 3.02 µM
- TGI (HT29 colon): > 100 µM
- GI50 (SNB-19 CNS): 4.11 µM
- TGI (SNB-19 CNS): > 100 µM
- GI50 (CAKI-1 renal): 6.01 µM
- TGI (CAKI-1 renal): > 100 µM
- GI50 (PC-3 prostate): 6.1 µM
- TGI (PC-3 prostate): > 100 µM
- GI50 (SR leukemia): 3.18 µM
- TGI (SR leukemia): > 100 µM
- GI50 (DU-145 prostate): 5.64 µM
- TGI (DU-145 prostate): > 100 µM
- GI50 (LOX IMVI melanoma): 3.06 µM
- TGI (LOX IMVI melanoma): > 100 µM
- GI50 (NCI-H460 lung): 5.88 µM
- TGI (NCI-H460 lung): > 100 µM
- GI50 (NCI/ADR-RES ovarian): 2.86 µM
- TGI (NCI/ADR-RES ovarian): 16.2 µM
- GI50 (MOLT-4 leukemia): 4.07 µM
- TGI (MOLT-4 leukemia): > 100 µM
- GI50 (T-47D breast): 5.34 µM
- TGI (T-47D breast): > 100 µM
- GI50 (SF-539 CNS): 3.36 µM
- TGI (SF-539 CNS): 16.7 µM
- GI50 (OVCAR-5 ovarian): 3.32 µM
- TGI (OVCAR-5 ovarian): > 100 µM
- GI50 (A498 renal): 26.1 µM
- TGI (A498 renal): > 100 µM
- GI50 (UACC-62 melanoma): 4.41 µM
- TGI (UACC-62 melanoma): > 100 µM
- GI50 (OVCAR-8 ovarian): 3.46 µM
- TGI (OVCAR-8 ovarian): > 100 µM
- GI50 (HS 578T breast): 23 µM
- TGI (HS 578T breast): > 100 µM
- GI50 (HCT-15 colon): 3.09 µM
- TGI (HCT-15 colon): > 100 µM
- GI50 (HCC-2998 colon): 3 µM
- TGI (HCC-2998 colon): 16.4 µM
- GI50 (OVCAR-4 ovarian): 3.94 µM
- TGI (OVCAR-4 ovarian): > 100 µM
- GI50 (MALME-3M melanoma): 27.5 µM
- TGI (MALME-3M melanoma): > 100 µM
- GI50 (IGROV1 ovarian): 3.88 µM
- TGI (IGROV1 ovarian): > 100 µM
- GI50 (UACC-257 melanoma): 23.2 µM
- TGI (UACC-257 melanoma): > 100 µM
- GI50 (TK-10 renal): 14.3 µM
- TGI (TK-10 renal): > 100 µM
- GI50 (K-562 leukemia): 3.72 µM
- TGI (K-562 leukemia): > 100 µM
- GI50 (ACHN renal): 6.46 µM
- TGI (ACHN renal): > 100 µM
- GI50 (MCF7 breast): 3.04 µM
- TGI (MCF7 breast): > 100 µM
- GI50 (MDA-MB-435): 5.06 µM
- TGI (MDA-MB-435): 60.9 µM
- GI50 (SK-MEL-5 melanoma): 10.4 µM
- TGI (SK-MEL-5 melanoma): 29 µM
- GI50 (SF-295 CNS): 3.99 µM
- TGI (SF-295 CNS): > 100 µM
- GI50 (NCI-H522 lung): 3.39 µM
- TGI (NCI-H522 lung): 71.6 µM
- GI50 (HOP-62 NSCLC): 3.55 µM
- TGI (HOP-62 NSCLC): > 100 µM
- GI50 (SW-620 colon): 3.8 µM
- TGI (SW-620 colon): > 100 µM
- GI50 (SK-MEL-28 melanoma): 29.3 µM
- TGI (SK-MEL-28 melanoma): > 100 µM
- GI50 (BT-549 breast): 3.62 µM
- TGI (BT-549 breast): 60 µM
- GI50 (COLO 205 colon): 7.93 µM
- TGI (COLO 205 colon): > 100 µM
- GI50 (SK-MEL-2 melanoma): 13.4 µM
- TGI (SK-MEL-2 melanoma): 47.6 µM
- GI50 (U251 CNS): 3.79 µM
- TGI (U251 CNS): > 100 µM
- GI50 (HCT-116 colon): 3.57 µM
- TGI (HCT-116 colon): > 100 µM
- GI50 (M14 melanoma): 22.6 µM
- TGI (M14 melanoma): > 100 µM
- GI50 (HL-60(TB) leukemia): 10.4 µM
- TGI (HL-60(TB) leukemia): > 100 µM
